Measured values reported in patent publication US9901636B2, “Conjugate of a photosensitiser and chitosan and uses thereof” (PCI BIOTECH AS, priority 2012, dated 2018).

Tests used:
[1] = Fluorescence quantum yield, steady-state comparative method vs anthracene; assay type: physicochemical; details: DMSO at room temperature
Description: UV-Vis measurements were recorded on a Perkin-Elmer Lambda 25 UV-Vis. spectrometer equipped with a Peltier Temperature Programmer. Fluorescence emission spectra were obtained using a SPEX FluoroMax spectrometer, using a cell with spectral range 170-2200 nm (Spectrocell Corporation, Oreland, Pa., USA). Absorption spectra were recorded at 20° C. and fluorescence emission spectra were recorded at ambient temperature, using quartz cuvette with a 10 mm path length. All the fluorescence spectra were recorded with constant slit widths, 1 nm for excitation and 1 nm for emission and fluorescence spectra were averaged over three scans for quantum yield study. However, for FIG. 5 (III) fluorescence spectra were obtained with slit widths 3 nm for excitation and 3 nm for emission.
Fluorescence quantum yields of compounds 3, 5, 16A-19B (all excited at Δex.=λmax=419 nm) were determined relative to a dilute solution of standard anthracene (φF=0.27, λex=365.5 nm) in absolute ethanol by using the steady-state comparative method. using the following equation: φX=φST(GradX/GradST)(ηS^2,ηST^2) where, the subscripts ST and X denote standard and test respectively, φ is the fluorescence quantum yield, Grad the gradient from the plot of integrated fluorescence intensity versus absorbance, and η the refractive index of the solvent.

[2] = Partitioning in aqueous:CHCl3 two-phase system; assay type: physicochemical; details: two-phase H2O/CHCl3 system (FIG. 6)
Text: (A) TPP(p-NH2)13 (B) TPPNH-Pip 5 (C) TPPp0.25-CS-TMA0.75 17A (D) TPPp0.25-CS-MP0.75 19A. Aqueous phases are shown on top.
In the ^1H NMR spectra of final compound TPPp0.1-CS-MP0.9 18A all peaks of the chitosan backbone along with the 1-methyl piperazine peaks can be clearly identified; however there is no observable NMR signal of the TPP moiety (FIG. 5E). […] In d6-DMSO the TPP peaks could be observed but in this case the chitosan backbone peaks were broadened and not clearly identifiable. […] The TPPp0.1-CS-MP0.9 18A has a dark red color confirming the presence of the PS.

[3] = Bhaumik et al., excited at 418 nm in DMF, TPP as standard; cited from earlier work
[4] = Table 4, λabs 420 nm, λem 653 nm
[5] = Table 2, excited at 419 nm, standard anthracene

Row | Compound | Quantum Yield (φF) [1, 4] | Partitioning between aqueous and organic phase [2] | Fluorescence quantum yield (φF), literature value [3] | Quantum Yield (φF) [1, 5]
1 | 5-(4-Carboxyphenyl)-10,15,20-triphenylchlorin [Compound 26] | 0.01331 | – | – | –
2 | Nc1ccc(-c2c3nc(c(-c4ccccc4)c4ccc([nH]4)c(-c4ccccc4)c4nc(c(-c5ccccc5)c5ccc2[nH]5)C=C4)C=C3)cc1 [Compound 3, 5-(4-Aminophenyl)-10,15,20-triphenylporphyrin, reference compound] | – | did not partition into the aqueous phase | 0.05 | 0.0002
3 | O=C(CN1CCNCC1)Nc1ccc(-c2c3nc(c(-c4ccccc4)c4ccc([nH]4)c(-c4ccccc4)c4nc(c(-c5ccccc5)c5ccc2[nH]5)C=C4)C=C3)cc1 [Compound 5, 5-(4α-Piperazineacetylamidophenyl)-10,15,20-triphenylporphyrin] | – | did not partition into the aqueous phase | – | 0.0036
4 | Nc1ccc(-c2c3nc(c(-c4ccccc4)c4ccc([nH]4)c(-c4ccccc4)c4nc(c(-c5ccccc5)c5ccc2[nH]5)C=C4)CC3)cc1 [Compound 20, 5-(4-Aminophenyl)-10,15,20-triphenylchlorin] | 0.00246 | – | – | –
